Here are results for four compounds from ChEMBL document CHEMBL1151958, “Improving metabolic stability by glycosylation: bifunctional peptide derivatives that are opioid receptor agonists and neurokinin 1 receptor antagonists” (J Med Chem, 2009).

The target in data set [1] is Mu-type opioid receptor (Rattus norvegicus, UniProt P33535). The data set can be described thus: Displacement of [3H]DAMGO from rat mu opioid receptor expressed in mouse HN9.10 cell membrane. It counts as cell membranes. In general terms: Loss of bound radioactivity is the signal in a displacement assay; it reports binding, not function.
Mu-type opioid receptor, sequence (P33535 whole entry): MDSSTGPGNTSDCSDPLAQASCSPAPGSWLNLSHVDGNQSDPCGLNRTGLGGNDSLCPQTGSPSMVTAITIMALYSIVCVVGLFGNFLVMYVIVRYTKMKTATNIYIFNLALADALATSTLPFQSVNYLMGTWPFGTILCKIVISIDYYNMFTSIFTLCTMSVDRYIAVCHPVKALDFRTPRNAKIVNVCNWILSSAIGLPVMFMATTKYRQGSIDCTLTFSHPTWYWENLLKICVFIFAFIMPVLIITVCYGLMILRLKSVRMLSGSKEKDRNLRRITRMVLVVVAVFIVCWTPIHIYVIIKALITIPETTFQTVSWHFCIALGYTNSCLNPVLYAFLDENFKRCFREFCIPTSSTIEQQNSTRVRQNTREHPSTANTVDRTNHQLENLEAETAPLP
Data set [2] has as its target Substance-P receptor (Homo sapiens, UniProt P25103). Description: Displacement of [3H]substance P from human NK1 receptor expressed in CHO cell membrane. In kind it is cell membranes.
The target in data set [3] is Delta-type opioid receptor (Homo sapiens, UniProt P41143). The data set can be described thus: Displacement of [3H]DPDPE from human delta opioid receptor expressed in mouse HN9.10 cell membrane. In kind it is cell membranes.
Delta-type opioid receptor, sequence (P41143 whole entry): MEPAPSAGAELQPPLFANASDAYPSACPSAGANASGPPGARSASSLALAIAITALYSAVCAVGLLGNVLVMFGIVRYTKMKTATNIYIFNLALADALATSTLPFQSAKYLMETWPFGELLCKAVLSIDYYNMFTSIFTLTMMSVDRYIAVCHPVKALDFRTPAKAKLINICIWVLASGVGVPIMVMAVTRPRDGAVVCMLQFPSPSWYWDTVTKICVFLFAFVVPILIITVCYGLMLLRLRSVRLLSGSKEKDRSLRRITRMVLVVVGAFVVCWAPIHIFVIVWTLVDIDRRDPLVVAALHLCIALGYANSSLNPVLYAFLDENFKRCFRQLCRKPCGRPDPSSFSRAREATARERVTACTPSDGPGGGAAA
Data set [4] deals with Substance-P receptor (Rattus norvegicus, UniProt P14600). Description: Displacement of [3H]substance P from rat NK1 receptor expressed in CHO cell membrane. It counts as cell membranes.
Substance-P receptor (Rattus norvegicus, UniProt P14600), sequence (P14600 whole entry): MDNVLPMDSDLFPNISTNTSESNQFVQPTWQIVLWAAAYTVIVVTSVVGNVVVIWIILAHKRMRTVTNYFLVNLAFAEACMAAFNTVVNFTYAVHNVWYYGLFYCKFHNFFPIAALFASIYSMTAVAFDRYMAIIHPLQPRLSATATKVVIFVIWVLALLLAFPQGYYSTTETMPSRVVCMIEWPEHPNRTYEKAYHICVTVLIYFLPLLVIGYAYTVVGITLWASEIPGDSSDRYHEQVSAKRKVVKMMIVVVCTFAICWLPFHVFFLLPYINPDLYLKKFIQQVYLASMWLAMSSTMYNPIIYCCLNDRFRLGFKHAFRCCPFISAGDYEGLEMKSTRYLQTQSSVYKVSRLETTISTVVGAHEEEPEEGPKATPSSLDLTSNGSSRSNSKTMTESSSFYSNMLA
A short description of data set [5]: Metabolic stability in rat plasma assessed as half life at 37 degC. It counts as ADME, cell-free.

Substance-P receptor (Homo sapiens, UniProt P25103), sequence (P25103 whole entry): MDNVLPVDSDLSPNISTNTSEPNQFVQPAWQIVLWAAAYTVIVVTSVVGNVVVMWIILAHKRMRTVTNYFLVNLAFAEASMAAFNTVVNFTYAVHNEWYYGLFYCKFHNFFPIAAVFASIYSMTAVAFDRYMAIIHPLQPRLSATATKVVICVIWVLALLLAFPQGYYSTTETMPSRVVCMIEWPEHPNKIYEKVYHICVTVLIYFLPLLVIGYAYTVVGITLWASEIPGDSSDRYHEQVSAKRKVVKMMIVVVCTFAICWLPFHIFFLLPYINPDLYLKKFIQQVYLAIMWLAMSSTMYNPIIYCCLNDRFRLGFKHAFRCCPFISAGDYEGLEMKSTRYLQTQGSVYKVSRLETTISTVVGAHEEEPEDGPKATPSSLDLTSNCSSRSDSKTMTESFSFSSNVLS

In general, IC50 refers to the concentration needed to halve the response being measured. With `CCCC[C@H](NC(=O)[C@H](Cc1ccccc1)NC(=O)CNC(=O)[C@@H](C)NC(=O)[C@@H](N)Cc1ccc(O)cc1)C(=O)N[C@@H](CO[C@@H]1O[C@H](CO)[C@@H](O)[C@H](O)[C@H]1O)C(=O)N[C@@H](CC(C)C)C(=O)N[C@@H](Cc1c[nH]c2ccccc12)C(=O)NCc1cc(C(F)(F)F)cc(C(F)(F)F)c1`, the IC50 in data set [1] was 7080 nM; in data set [2] it was 4.17 nM.

As to `CC(C)C[C@H](NC(=O)[C@@H]1CCCN1C(=O)[C@H](CO[C@@H]1O[C@H](CO)[C@@H](O)[C@H](O)[C@H]1O)NC(=O)[C@H](Cc1ccccc1)NC(=O)CNC(=O)[C@@H](C)NC(=O)[C@@H](N)Cc1ccc(O)cc1)C(=O)N[C@@H](Cc1c[nH]c2ccccc12)C(=O)NCc1cc(C(F)(F)F)cc(C(F)(F)F)c1`, the IC50 in data set [1] is 759 nM; in data set [2], 0.000617 nM; in data set [3], 123 nM; in data set [4] it was 4.47 nM.

As a reminder, the half-life is how long it takes for the measured level to halve. As to `CCCC[C@H](NC(=O)[C@H](Cc1ccccc1)NC(=O)CNC(=O)[C@@H](C)NC(=O)[C@@H](N)Cc1ccc(O)cc1)C(=O)N1CCC[C@H]1C(=O)N[C@@H](CC(C)C)C(=O)N[C@@H](Cc1c[nH]c2ccccc12)C(=O)NCc1cc(C(F)(F)F)cc(C(F)(F)F)c1`, the IC50 in data set [2] is 0.00269 nM; in data set [3], 2.14 nM. Moreover, the half-life in data set [5] is greater than 6 h.

Regarding `CCCC[C@H](NC(=O)[C@H](Cc1ccccc1)NC(=O)CNC(=O)[C@@H](C)NC(=O)[C@@H](N)Cc1ccc(O)cc1)C(=O)N1CCC[C@H]1C(=O)N[C@@H](CO[C@@H]1O[C@H](CO)[C@@H](O)[C@H](O)[C@H]1O)C(=O)N[C@@H](Cc1c[nH]c2ccccc12)C(=O)NCc1cc(C(F)(F)F)cc(C(F)(F)F)c1`, the IC50 was 17 nM in data set [1], 7.94 nM in data set [3] and 50.1 nM in data set [4]. For the same compound, in data set [5], the half-life was greater than 6 h.
